Source: patent US20240051952A1, “HMOX1 INDUCERS” (Mitobridge Inc., priority 2019, published 2024)

System: Human Heme Oxygenase-1 (HMOX-1)
Experiment: ELISA assay to measure human heme oxygenase-1 (HMOX-1) in HepG2 lysate
Assay type: cell-based
Details: fold change of human HMOX1 protein levels relative to DMSO control, HepG2
How it was run: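 HepG2 cells lysed in PBS/0.5% Triton X-100/1 mM EDTA with protease inhibitors; lysate diluted 1:20. Sandwich ELISA: anti-HO-1 capture (8 μg/ml), biotinylated detection antibody (200 ng/ml), streptavidin-HRP, chemiluminescent read. Quantified against 12-point HO-1 standard curve from 20 ng/ml; incubations at 20 °C.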

SMILES	Maximum Fold induction
Cn1c(Nc2nc3ccc(OCCO)cc3o2)nc2cc(C(=O)NCCNC3=NCCN3)ccc21 [Example 106, N-(2-((4,5-dihydro-1H-imidazol-2-yl)amino)ethyl)-2-((6-(2-hydroxyethoxy)benzo[d]oxazol-2-yl)amino)-1-methyl-1H-benzo[d]imidazole-5-carboxamide]	6
Cn1c(Nc2nc3cc(F)c(C(F)(F)F)cc3o2)nc2cc(C(=O)O)ccc21 [Example 107, 2-((5-fluoro-6-(trifluoromethyl)benzo[d]oxazol-2-yl)amino)-1-methyl-1H-benzo[d]imidazole-5-carboxylic acid]	45
Cn1c(Nc2nc3cc(F)c(C(F)(F)F)cc3o2)nc2cc(C(=O)NCCO)ccc21 [Example 108, 2-((5-fluoro-6-(trifluoromethyl)benzo[d]oxazol-2-yl)amino)-N-(2-hydroxyethyl)-1-methyl-1H-benzo[d]imidazole-5-carboxamide]	29
COCCNC(=O)c1ccc2c(c1)nc(Nc1nc3cccnc3o1)n2C [Example 109, N-(2-methoxyethyl)-1-methyl-2-(oxazolo[5,4-b]pyridin-2-ylamino)-1H-benzo[d]imidazole-5-carboxamide]	26
Cn1c(Nc2nc3cccnc3o2)nc2cc(C(=O)NCCO)ccc21 [Example 110, N-(2-hydroxyethyl)-1-methyl-2-(oxazolo[5,4-b]pyridin-2-ylamino)-1H-benzo[d]imidazole-5-carboxamide]	60
Cn1c(Nc2nc3ncccc3o2)nc2cc(C(=O)O)ccc21 [Example 111, 1-methyl-2-(oxazolo[4,5-b]pyridin-2-ylamino)-1H-benzo[d]imidazole-5-carboxylic acid]	3
COCCNC(=O)c1ccc2c(c1)nc(Nc1nc3ncccc3o1)n2C [Example 112, N-(2-methoxyethyl)-1-methyl-2-(oxazolo[4,5-b]pyridin-2-ylamino)-1H-benzo[d]imidazole-5-carboxamide]	15
Cn1c(Nc2nc3ccc(C(F)(F)F)nc3o2)nc2cc(C(=O)NCCO)ccc21 [Example 113, N-(2-hydroxyethyl)-1-methyl-2-((5-(trifluoromethyl)oxazolo[5,4-b]pyridin-2-yl)amino)-1H-benzo[d]imidazole-5-carboxamide]	20
Cn1c(Nc2nc3nccnc3s2)nc2cc(C(=O)NCCOCCO)ccc21 [Example 114, N-(2-(2-hydroxyethoxy)ethyl)-1-methyl-2-(thiazolo[4,5-b]pyrazin-2-ylamino)-1H-benzo[d]imidazole-5-carboxamide]	33
Cn1c(Nc2nc3ccc(C4CC4)cc3o2)nc2cc(C(=O)O)ccc21 [Example 115, 2-((6-cyclopropylbenzo[d]oxazol-2-yl)amino)-1-methyl-1H-benzo[d]imidazole-5-carboxylic acid]	71
COCCNC(=O)c1ccc2c(c1)nc(Nc1nc3ccc(C4CC4)cc3o1)n2C [Example 116, 2-((6-cyclopropylbenzo[d]oxazol-2-yl)amino)-N-(2-methoxyethyl)-1-methyl-1H-benzo[d]imidazole-5-carboxamide]	32-38
Cn1c(Nc2nc3cccc(C(F)(F)F)c3o2)nc2cc(C(=O)NCCOCCO)ccc21 [Example 117, N-(2-(2-hydroxyethoxy)ethyl)-1-methyl-2-((7-(trifluoromethyl)benzo[d]oxazol-2-yl)amino)-1H-benzo[d]imidazole-5-carboxamide]	38
Cn1c(Nc2nc3cc(C(=O)NCCOCCO)ccc3o2)nc2ccccc21 [Example 118, N-(2-(2-hydroxyethoxy)ethyl)-2-((1-methyl-1H-benzo[d]imidazol-2-yl)amino)benzo[d]oxazole-5-carboxamide]	24
COCCONC(=O)c1ccc2c(c1)nc(Nc1nc3ccccc3o1)n2C [Example 119, 2-(benzo[d]oxazol-2-ylamino)-N-(2-methoxyethoxy)-1-methyl-1H-benzo[d]imidazole-5-carboxamide]	47-65
CC(O)CONC(=O)c1ccc2c(c1)nc(Nc1nc3ccccc3o1)n2C (stereo not drawn) [Example 120, 2-(benzo[d]oxazol-2-ylamino)-N-(2-hydroxypropoxy)-1-methyl-1H-benzo[d]imidazole-5-carboxamide]	26
CN(C)CC(=O)NCCONC(=O)c1ccc2c(c1)nc(Nc1nc3ccccc3o1)n2C [Example 121, 2-(benzo[d]oxazol-2-ylamino)-N-(2-(2-(dimethylamino)acetamido)ethoxy)-1-methyl-1H-benzo[d]imidazole-5-carboxamide]	22-23
CN(C)CCONC(=O)c1ccc2c(c1)nc(Nc1nc3ccc(C(F)(F)F)cc3o1)n2C [Example 122, N-(2-(dimethylamino)ethoxy)-1-methyl-2-((6-(trifluoromethyl)benzo[d]oxazol-2-yl)amino)-1H-benzo[d]imidazole-5-carboxamide]	51-67

SMILES	Maximum Fold induction
CN(C)CCONC(=O)c1ccc2c(c1)nc(Nc1nc3ccccc3o1)n2C [Example 123, 2-(benzo[d]oxazol-2-ylamino)-N-(2-(dimethylamino)ethoxy)-1-methyl-1H-benzo[d]imidazole-5-carboxamide]	22
COCCONC(=O)c1ccc2c(c1)nc(Nc1nc3ccc(C(F)(F)F)cc3o1)n2C [Example 124, N-(2-methoxyethoxy)-1-methyl-2-((6-(trifluoromethyl)benzo[d]oxazol-2-yl)amino)-1H-benzo[d]imidazole-5-carboxamide]	31-52
Cn1c(Nc2nc3ccc(C(F)(F)F)cc3o2)nc2cc(C(=O)NOCCO)ccc21 [Example 125, N-(2-hydroxyethoxy)-1-methyl-2-((6-(trifluoromethyl)benzo[d]oxazol-2-yl)amino)-1H-benzo[d]imidazole-5-carboxamide]	32-59
Cn1c(Nc2nc3ccc(OC(F)(F)F)cc3o2)nc2cc(C(=O)NOCCO)ccc21 [Example 126, N-(2-hydroxyethoxy)-1-methyl-2-((6-(trifluoromethoxy)benzo[d]oxazol-2-yl)amino)-1H-benzo[d]imidazole-5-carboxamide]	33-37
COCCONC(=O)c1ccc2c(c1)nc(Nc1nc3ccc(OC(F)(F)F)cc3o1)n2C [Example 127, N-(2-methoxyethoxy)-1-methyl-2-((6-(trifluoromethoxy)benzo[d]oxazol-2-yl)amino)-1H-benzo[d]imidazole-5-carboxamide]	27-36
COCCOc1ccc2nc(Nc3nc4cc(C(=O)NOCCO)ccc4n3C)oc2c1 [Example 128, N-(2-hydroxyethoxy)-2-((6-(2-methoxyethoxy)benzo[d]oxazol-2-yl)amino)-1-methyl-1H-benzo[d]imidazole-5-carboxamide]	48-75
Cn1c(Nc2nc3ccc(OCCO)cc3o2)nc2cc(C(=O)NOCCO)ccc21 [Example 129, N-(2-hydroxyethoxy)-2-((6-(2-hydroxyethoxy)benzo[d]oxazol-2-yl)amino)-1-methyl-1H-benzo[d]imidazole-5-carboxamide]	54-58
Cn1c(Nc2nc3cc(F)c(C(F)(F)F)cc3o2)nc2cc(C(=O)NOCCO)ccc21 [Example 130, 2-((5-fluoro-6-(trifluoromethyl)benzo[d]oxazol-2-yl)amino)-N-(2-hydroxyethoxy)-1-methyl-1H-benzo[d]imidazole-5-carboxamide]	42
CC1CCc2nc(Nc3nc4cc(C(=O)NOCCO)ccc4n3C)sc2C1 (stereo not drawn) [Example 131, N-(2-hydroxyethoxy)-1-methyl-2-((6-methyl-4,5,6,7-tetrahydrobenzo[d]thiazol-2-yl)amino)-1H-benzo[d]imidazole-5-carboxamide]	35-62
COCCONC(=O)c1ccc2c(c1)nc(Nc1nc3ccc(C(C)=O)cc3o1)n2C [Example 132, 2-((6-acetylbenzo[d]oxazol-2-yl)amino)-N-(2-methoxyethoxy)-1-methyl-1H-benzo[d]imidazole-5-carboxamide]	39
Cn1c(Nc2nc3ccc(C(C)(C)O)cc3o2)nc2cc(C(=O)NCCO)ccc21 [Example 133, N-(2-hydroxyethyl)-2-((6-(2-hydroxypropan-2-yl)benzo[d]oxazol-2-yl)amino)-1-methyl-1H-benzo[d]imidazole-5-carboxamide]	17
Cn1c(Nc2nc3ccc(-c4cscn4)cc3o2)nc2cc(C(=O)NCCOCCO)ccc21 [Example 134, N-(2-(2-hydroxyethoxy)ethyl)-1-methyl-2-((6-(thiazol-4-yl)benzo[d]oxazol-2-yl)amino)-1H-benzo[d]imidazole-5-carboxamide]	42-70
CN1CC(c2ccc3nc(Nc4nc5cc(C(=O)NCCOCCO)ccc5n4C)oc3c2)OC1=O (stereo not drawn) [Example 135, N-(2-(2-hydroxyethoxy)ethyl)-1-methyl-2-((6-(3-methyl-2-oxooxazolidin-5-yl)benzo[d]oxazol-2-yl)amino)-1H-benzo[d]imidazole-5-carboxamide]	1
Cn1c(Nc2nc3ccc(N4CCOCC4)cc3o2)nc2cc(C(=O)NCCOCCO)ccc21 [Example 136, N-(2-(2-hydroxyethoxy)ethyl)-1-methyl-2-((6-morpholinobenzo[d]oxazol-2-yl)amino)-1H-benzo[d]imidazole-5-carboxamide]	36
Cn1c(Nc2nc3ccc(N4CCCC4)cc3o2)nc2cc(C(=O)NCCOCCO)ccc21 [Example 137, N-(2-(2-hydroxyethoxy)ethyl)-1-methyl-2-((6-(pyrrolidin-1-yl)benzo[d]oxazol-2-yl)amino)-1H-benzo[d]imidazole-5-carboxamide]	24-70
Cn1c(Nc2nc3ccc(OC4CCOCC4)cc3o2)nc2cc(C(=O)NCCOCCO)ccc21 [Example 138, N-(2-(2-hydroxyethoxy)ethyl)-1-methyl-2-((6-((tetrahydro-2H-pyran-4-yl)oxy)benzo[d]oxazol-2-yl)amino)-1H-benzo[d]imidazole-5-carboxamide]	20
